# Experiments:
# [1] = system: MCF7 xenograft tumors; test: MCF7 xenograft tumor study after estrogen pellet removal; assay type: in vivo, mice
# Description: Xenograft tumor analysis: Estrogen-stimulated MCF7 tumors were initiated in the axial mammary gland of 6-week old estrogen-treated (0.72 mg/60 days pellet sc, Innovative Research of America) ovariectomized female NU/NU mice (in-house colony) by serial transfer and were measured as described (Wardell et al., (2013) Clin Cancer Res 19 (9):2420-2431). […] FIG. 9: At ˜0.1 cm^3 tumor volume, the estrogen pellet was surgically removed, and mice were randomized (n=6-10) to daily treatment with vehicle or RAD1901 (0.3-10 mg/kg). Treatments were formulated as above. Animal tissues were processed and analyzed as described (Wardell et al., (2013) Clin Cancer Res 19 (9):2420-2431).
# As shown above, high dose RAD1901 (20 mg/kg) inhibited the growth of ESR1-dependent MCF7-cell derived tumors in mice. However, the observation that uterine wet weight was increased in mice treated with doses of RAD1901 that were lower than that required to effect ESR1 turnover highlighted the need to examine whether a similar biphasic pharmacology was manifest in breast tumors. To further evaluate the pharmacology of RAD1901, a second xenograft tumor study was conducted in which MCF7 tumors were established under estrogen stimulation. For FIG. 9A, MCF7 xenograft tumors were initiated in ovariectomized female nu/nu mice as in FIG. 5. Estrogen pellets were surgically removed when tumors reached ˜0.1 cm^3 volume, and animals (n=6-10) then received daily treatment with vehicle or RAD1901 (RAD), (0.3-10 mg/kg sc). Mean tumor volume+/−SEM per day of treatment was presented. Significance as compared to the vehicle (2-way ANOVA of matched values followed by Bonferroni comparison) was indicated (*p<0.05, **p<0.0005). For FIG. 9B, uterine wet weight at sacrifice (measured as in FIG. 8) and % change in tumor volume (as compared to size at randomization) calculated using the final measurement recorded for mice in (FIG. 9A) are graphically presented. For FIGS. 9C-9D, expression of ESR1 target genes in tumors was analyzed essentially as in FIG. 5. Estrogen only samples from FIG. 5D were included for comparison. For FIG. 9E, ESR1 levels in tumor tissues were analyzed as in FIG. 8 and were normalized to similarly detected Lamin-A. Significant downregulation (*p<0.05) was determined by ANOVA followed by Bonferroni comparison.
# [2] = system: MCF7 xenograft tumors; test: MCF7 xenograft tumor study in estrogen-treated ovariectomized nu/nu mice; assay type: in vivo; settings: 20 mg/kg sc daily
# Description: A total of 90 female Nu/Nu mice were ovariectomized and implanted subcutaneous simultaneously with an estrogen pellet (Innovative Research of America) releasing 0.72 mg estradiol (E2) over 60 days. 2 days later an approximately 6 mm^3 fragment of an MCF7 xenograft tumor (isolated from a recently sacrificed estrogen treated nu/nu mouse) was inserted subcutaneous into the axial mammary gland. Tumor growth (by caliper measurement) and animal body weight were monitored 3× weekly until tumor volume reached ˜0.2 cm^3. […] Treatments were formulated in sterile corn oil and were administered daily by subcutaneous injection. After 3 weeks of treatments, animals were euthanized and serum and tissues saved for analysis. FIG. 1B depicts tumor volume analyzed using non-linear curve fit and exponential growth calculation (Graphpad Prism), followed by two-way ANOVA and Bonferroni analysis.
# Xenograft tumor analysis: Estrogen-stimulated MCF7 tumors were initiated in the axial mammary gland of 6-week old estrogen-treated (0.72 mg/60 days pellet sc, Innovative Research of America) ovariectomized female NU/NU mice (in-house colony) by serial transfer and were measured as described (Wardell et al., (2013) Clin Cancer Res 19 (9):2420-2431). […] Animal tissues were processed and analyzed as described (Wardell et al., (2013) Clin Cancer Res 19 (9):2420-2431).
# The ability of RAD1901 (FIG. 5A) to modulate the […] estradiol (E2) dependent transcriptional activity of the human estrogen receptor alpha (ESR1) and human estrogen receptor beta (ESR2) was assessed in transiently transfected SKBR3 cells using a synthetic reporter gene. […] DNA content as assessed by fluorescence was measured as a surrogate for cell proliferation. The relative increase in DNA fluorescence was calculated by normalizing to baseline values detected in a duplicate plate of cells that was harvested on day 1 prior to the initial treatment. […] For FIG. 5F, expression of ESR1 target genes in tumors was analyzed essentially as in (C).
# [3] = system: MCF7 cells; test: MCF7 proliferation in response to E2 or insulin; assay type: cell-based; settings: SERMs and SERDs 10^-6 M, insulin 2×10^-9 M
# Description: The expression of ESR1 target genes responsive to (FIG. 10A) agonists, (FIG. 10B) primarily SERMs, or (FIG. 10C) SERMs and agonists was analyzed as in FIG. 5. Relative changes of these and additional target genes designed to evaluate dose dependent response to RAD1901 are presented in FIG. 11. Significant target gene regulation (*p<0.05) as compared to the vehicle control was detected by 2 way ANOVA followed by Fisher's LSD (Graphpad Prism 6). […] Triplicate wells of SKBR3 cells were transfected with plasmids expressing ESR1 fused to VP16 together with Gal4DBD alone (control) or Gal4DBD fused to ESR1 interacting peptides noted on the horizontal axis. Cells were then treated with the indicated ESR1 ligands (10^−7 M unless otherwise indicated). Interaction of ESR1 with the Gal4DBD peptide constructs was detected through activation of a Gal4-responsive luciferase reporter construct and was normalized to detected β-galactosidase activity expressed in a constitutive manner using a second vector. Normalized response was expressed as fold increase over the detected level of interaction between Gal4DBD alone and ESR1-VP16 in the absence of ligand (Veh). For FIG. 10E, the effect of SERMs and SERDs (10^−6 M) on the proliferation of MCF7 cells in response to E2 (10^−9 M) or insulin (2×10^−9 M) was evaluated as in FIG. 5. Statistically similar treatments (2-way ANOVA followed by Bonferroni comparison) are indicated by letters. […] The expression of ESR1 target genes responsive to (A) agonists, (B) primarily SERMs, or (C) SERMs and agonists was analyzed using RT qPCR following RNA isolation. mRNA expression was normalized (ΔΔCT analysis) to the similarly detected 36B4 housekeeping. The profiles presented in dendogram format were analyzed with the Ward hierarchical clustering algorithm (JMP 11) using standardized data.
smiles,measurement,setting,value
"CCNCCc1ccc(CN(CC)c2cc(OC)ccc2[C@@H]2CCc3cc(O)ccc3C2)cc1 [RAD1901, (R)-6-{2-{ethyl[4-(2-ethylaminoethyl)benzyl]amino}-4-methoxyphenyl}-5,6,7,8-tetrahydronaphthalen-2-ol]",ESR1 levels in tumor extracts (immunoblot),[1]; 0.3-10 mg/kg,dose-dependent downregulation
same,final tumor size,[1]; 1 or 3 mg/kg groups,significantly increased
same,tumor growth after estrogen withdrawal,[1]; 1 or 3 mg/kg sc daily,significant stimulation of tumor growth
same,expression of AGR2 in tumors,[1]; 1 or 3 mg/kg treatment groups,observed
same,expression of classical ESR1 target genes such as PGR in tumors,[1]; 1 or 3 mg/kg treatment groups,not observed
same,tumor growth after estrogen withdrawal,[1]; higher dose (10 mg/kg) sc daily,not apparent at the higher dose
same,uterine wet weight at sacrifice,"[1]; nu/nu mice, 0.3-10 mg/kg sc daily",stimulation of uterine weight was apparent in mice treated with only the 0.3 mg/kg dose
same,E2-stimulated growth of MCF7 tumors,[2],inhibited E2-stimulated growth of the tumors with efficacy similar to tamoxifen
same,expression of ESR1-target genes PGR and FHL1 in treated tumors,[2],suppress the expression of the ESR1-target genes PGR and FHL1 to the same degree
same,insulin-stimulated proliferation,[3],without effect
